# Results reported in patent publication US7579366B2, “Epothilone derivatives and their synthesis and use” (The Scripps Research Institute, priority 1998, dated 2009).
# Tests used:
# [1] = from C/C(=C\I)[C@@H](O)C/C=C(\CCC[C@H](C)[C@H](O[Si](C)(C)C(C)(C)C)[C@@H](C)C(=O)C(C)(C)[C@H](CC(=O)O)O[Si](C)(C)C(C)(C)C)COC(c1ccccc1)(c1ccccc1)c1ccccc1; ester bond; 2,4,6-trichlorobenzoyl chloride, Et3N, 4-DMAP (Yamaguchi); toluene; 4.66 mM; 75.0 °C; 2.5 h
# [2] = biological target: T1, pig brain microtubuli protein (tubulin plus microtubuli-associated proteins) (Sus scrofa, UniProt P02554); assay: Induction of tubulin polymerisation, pig brain microtubuli, compared with 25 μM epothilone B; assay type: biochemical; settings: 5 μM test compound versus epothilone B at 25 μM (in %)
# T1 construct: Microtubuli-protein is obtained from pig brain by two cycles of temperature dependent depolymerisation/polymerisation; from tissue; host or cells: pig brain
# Experimental: Stock solutions of the test compounds are made in DMSO and stored at −20° C. Microtubuli-protein is obtained from pig brain by two cycles of temperature dependent depolymerisation/polymerisation, as described (see Weingarten et al., Biochemistry 1974; 13: 5529-37). Working stock solutions of microtubule protein (meaning tubulin plus microtubuli-associated proteins) are stored at −70° C. The degree of the microtubuli protein polymerisation induced by a test compound is measured essentially as known from the literature (see Lin et al., Cancer Chem. Pharm. 1996; 38:136-140). In short, 5 μl stock solution of the test compound are pre-mixed in the twenty-fold of the desired final concentration with 45 μl of water at room temperature, and the mixture is then placed on ice. […] As indirect measure for the tubulin-polymerisation the protein concentration of the supernatant (which contains the rest of the un-polymerised, soluble microtubuli protein) is determined according to the Lowry method (DC Assay Kit, Bio-Rad Laboratories, Hercules, Calif.), and the optical density (OD) of the color reaction is determined at 750 nm with a spectrometer (SpectraMax 340, Molecular Devices, Sunnyvale, Calif.). […]
# PC-3M cells = assay: Cell growth inhibition, PC-3M prostate cells; assay type: cell-based; settings: Homo sapiens
# MCF-7/ADR cells = assay: Cell growth inhibition, MCF-7/ADR breast cells (multidrug resistant); assay type: cell-based; settings: Homo sapiens, NCI/ADR-RES
# HCT-15 cells = assay: Cell growth inhibition, HCT-15 colon cells; assay type: cell-based; settings: Homo sapiens
# MCF-7 cells = assay: Cell growth inhibition, MCF-7 breast cells; assay type: cell-based; settings: Homo sapiens, MCF7
# A549 cells = assay: Cell growth inhibition, A549 lung cells; assay type: cell-based; settings: Homo sapiens
# KB-31 cells = assay: Cell growth inhibition, KB-31 epidermoid carcinoma cells; assay type: cell-based; settings: Homo sapiens, KB 3-1
# Experimental: (§1) Stock solutions of the test compound of formula I 10 mM) in DMSO are prepared and stored at −20° C. Human KB-31 and (multidrug-resistant, P-gp 170 overexpressing) KB-8511 epidermoid carcinoma cells are from Dr. M. Baker, Roswell Park Memorial Institute (Buffalo, N.Y., USA) (for description see also Akiyama et al., Somat. Cell. Mol. Genetics 11, 117-126 (1985) und Fojo A., et al., Cancer Res. 45, 3002-3007 (1985)—KB-31 und KB-8511 both are derivatives of the KB-cell line (American Type Culture Collection) and are human epidermoid carcinoma cells. KB-31 cells can be cultivated in mono-layers using calf serum (M.A. Bioproducts), L-glutamine (Flow), penicillin (50 Units/ml) und streptomycin (50 μg/ml (Flow); they then grow with a doubling rate of about 22 hours, and the relative efficiency of plating them out lies at about 60%. […] After washing again, the stain is eluted with 3% HCl and the optical density at 665 nm is measured with a SpectraMax 340 (Molecular Devices, Sunnyvale, Calif.). IC50-values are determined by mathematically fitting the data to curves using the SoftPro2.0 program (Molecular Devices, Sunnyvale, Calif.) and the formula [(OD treated)−(OD start)]/[(OD control)−(OD start)]×100. […]
# KB-8511 cells = assay: Cell growth inhibition, KB-8511 epidermoid carcinoma cells (P-gp overexpressing); assay type: cell-based; settings: Homo sapiens
# Experimental: as §1
# HCT-116 cells = assay: Cell growth inhibition, HCT-116 colon cells; assay type: cell-based; settings: Homo sapiens
# DU145 cells = assay: Cell growth inhibition, DU145 prostate cells; assay type: cell-based; settings: Homo sapiens, DU-145
# T1 sequence (P02554 whole entry): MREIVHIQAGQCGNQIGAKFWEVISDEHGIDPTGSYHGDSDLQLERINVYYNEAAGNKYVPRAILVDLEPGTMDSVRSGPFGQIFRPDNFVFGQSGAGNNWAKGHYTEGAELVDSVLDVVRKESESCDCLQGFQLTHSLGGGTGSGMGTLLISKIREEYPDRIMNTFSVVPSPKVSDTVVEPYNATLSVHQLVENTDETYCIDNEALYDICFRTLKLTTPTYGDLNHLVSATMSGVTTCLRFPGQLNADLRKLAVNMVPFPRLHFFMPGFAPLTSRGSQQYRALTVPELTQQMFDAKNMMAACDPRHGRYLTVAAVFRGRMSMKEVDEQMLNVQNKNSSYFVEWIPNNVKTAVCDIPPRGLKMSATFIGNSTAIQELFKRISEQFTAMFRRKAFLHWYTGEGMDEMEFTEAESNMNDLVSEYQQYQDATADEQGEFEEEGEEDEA
# T1 sequence (P02550 whole entry partner): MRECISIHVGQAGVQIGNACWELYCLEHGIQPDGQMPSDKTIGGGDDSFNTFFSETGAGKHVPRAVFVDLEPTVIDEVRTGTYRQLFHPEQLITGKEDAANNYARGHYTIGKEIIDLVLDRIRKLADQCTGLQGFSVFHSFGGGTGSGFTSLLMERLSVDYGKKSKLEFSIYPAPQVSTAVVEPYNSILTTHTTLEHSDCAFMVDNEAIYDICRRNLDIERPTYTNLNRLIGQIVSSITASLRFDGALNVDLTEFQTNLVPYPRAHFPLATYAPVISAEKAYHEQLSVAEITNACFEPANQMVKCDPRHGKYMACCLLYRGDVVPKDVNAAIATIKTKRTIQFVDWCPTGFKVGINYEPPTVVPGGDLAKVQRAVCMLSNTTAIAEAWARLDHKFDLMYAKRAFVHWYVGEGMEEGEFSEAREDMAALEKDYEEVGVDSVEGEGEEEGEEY
SMILES,"ring closure, yield of all isomers [1]",Tubulin (%): induction of tubulin polymerisation [2],IC50 (PC-3M cells),IC50 (MCF-7/ADR cells),IC50 (HCT-15 cells),IC50 (MCF-7 cells),IC50 (A549 cells),IC50 (KB-31 cells),IC50 (KB-8511 cells),IC50 (HCT-116 cells),IC50 (DU145 cells)
C/C(=C\I)[C@@H]1C/C=C(/COC(c2ccccc2)(c2ccccc2)c2ccccc2)CCC[C@H](C)[C@H](O[Si](C)(C)C(C)(C)C)[C@@H](C)C(=O)C(C)(C)[C@@H](O[Si](C)(C)C(C)(C)C)CC(=O)O1,84%,–,–,–,–,–,–,–,–,–,–
"C/C(=C\c1ccc(C)cn1)[C@@H]1C[C@@H]2O[C@]2(C)CCCC(C)[C@H](O)C(C)C(=O)C(C)(C)C(O)CC(=O)O1 (some centres unmarked) [D (Example 1), 5-Methylpyridine Analogue D of Epothilone B]",–,88.9%,0.361 nM,0.853 nM,0.247 nM,0.114 nM,0.17 nM,0.108 nM,0.105 nM,0.209 nM,0.252 nM
